Source: patent US20070117834A1, “Methods and compositions for treating Huntington's disease” (priority 2005, published 2007)
“Also recorded” adds a separate entry of the source.

Tests used:
[1] = test system: transgenic Drosophila engineered to express the mutant huntingtin protein in all their neurons; conditions: historical reference; cited from earlier work
[2] = test system: wildtype Drosophila fruit flies; experiment: Toxicity of dimebon in wildtype Drosophila (eclosion number and timing); assay type: in vivo
Procedure: Dimebon was evaluated for toxicity levels in wildtype Drosophila fruit flies. Dimebon was administered daily at doses ranging from 10 μM to 1 mM to explore its toxicity. An untreated control group was also studied in this experiment. The concentrations given were concentrations of dimebon in the food that animals drink/eat ad libitum. The food consisted of cornmeal (61.2 g), dextrose (129.4. g), yeast (32.4 g) and agar (9.3 g) in 1 liter of water. Concentrated compounds were added to melted agar food cooled to just above the point of setting (about 40° C.), mixed and dispensed.
About 500 wild type Drosophila eggs were collected on grape juice plates for 20 hours, washed with distilled water and transferred 100 per vial to grow at 25 degrees C. The adult progeny were scored after eclosing (emerging from the pupal case) beginning 10 days later to assess developmental delay and toxicity. The criteria used for toxicity were the number (%) of animals that eclose and the time of the eclosing. For example, fewer animals may emerge from the pupal case if a drug is toxic or the same number of animals may eclose but more slowly than the untreated control group.
The toxicity test employed five concentrations (10 μM, 30 μM, 100 μM, 300 μM, 1 mM) plus an untreated control and was repeated with five sets of flies. […] At 1 mM, there was approximately a 20% decrease in eclosion observed, indicating toxicity at this food concentration. ANOVA analysis indicated a significant difference between datasets (p=0.0031), with post-hoc testing indicating a significant difference between the control and 1 mM datasets (p<0.01).

[3] = test system: transgenic Drosophila engineered to express the mutant huntingtin protein in all their neurons; experiment: Inhibition of mutant huntingtin-induced neurodegeneration of photoreceptor neurons in Drosophila eyes (pseudopupil scoring); assay type: in vivo; conditions: for rescue of photoreceptor neurons / rescue of photoreceptor neurons compared to untreated controls: FIG. 2; for rescue of photoreceptor neurons compared to untreated controls: 7 days on drug-containing food; for suppression of photoreceptor neuron degeneration, retest: FIG. 3; for protection of photoreceptors, overall statement: in vivo
Procedure: Dimebon was administered to one group of transgenic Drosophila engineered to express the mutant huntingtin protein in all their neurons. This was accomplished by cloning a foreign gene into transposable p-element DNA vectors under control of a yeast upstream activator sequence that is activated by the yeast GAL4 transcription factor. These promoter fusions were injected into fly embryos to produce transgenic animals. The foreign gene is silent until crossed to another transgenic strain of flies expressing the GAL4 gene in a tissue specific manner. The Elav>Gal4 which expresses the transgene in all neurons from birth until death was used in the experiments described.
For compound testing, 20-30 Httex1pQ93 virgins were mated to elav>Gal4 males and eggs were collected for about 20 hours at 25° C. and dispensed into vials (expected about 70% lethality from Htt effects). Upon eclosion, at least 80, 0-8 hour old flies were harvested and place on drug-containing food (20 eclosed adults per vial) and scored when 7 days old. Inhibitor-containing food was prepared just before tester flies began to emerge.
The two types of transgenic animals were crossed in order to collect enough closely matched aged controls to study. The crossed aged-matched adults (about 20 per dosing group) were placed on drug-containing food for 7 days. Animals were transferred to fresh food daily to minimize any effects caused by instability of the compounds. Survival was scored daily. The average number of photoreceptors at day zero was determined by scoring 7-10 of the newly eclosed tester siblings within six hours of eclosing. This established the baseline of degeneration at the time of exposure to drug. At day 7, animals were sacrificed and the number of photoreceptor neurons surviving was counted. […] For pseudopupil analysis, flies were decapitated and the heads are mounted in a drop of nail polish on a microscopic slide. The head was then covered with immersion oil and light is projected through the eye of the fly using a Nikon EFD-3/Optiphot-2 compound microscope with a 50× oil objective.

[4] = test system: transgenic Drosophila engineered to express the mutant huntingtin protein in all their neurons; experiment: Motor ability (climbing assay) in the Drosophila model; assay type: in vivo; conditions: for numbers surviving to be tested at day 7: initial number of 20 animals at day 0
Procedure: The motor function of Drosophila obtained as described in the examples above was assessed by exploiting the strong negative geotropism of flies to climb upwards when they are tapped to the bottom of a vial. See, Le Bourg and Lint (1992) Hypergravity and aging in Drosophila melanogaster. 4. […] activity. Gerontology 38, 59-64. Animals were placed in a graduated vessel (e.g., a measuring cylinder). The distance climbed in 10 seconds was measured for each animal over 3 trials with a 5 minute rest period. In a separate experiment using tall thin plastic tubes rather than glass vials, the distance climbed in 30 seconds was also measured. Animals were scored for outcome without knowledge of treatment group. Flies were tested for functional rescue using a behavior assay (climbing assay) where the distance climbed was measured. […] In this assay, climbing was scored blind and each animal was given 3 trials that were then averaged. The climbing of 7 day old animals reared on 0, 10, 100 or 1,000 μM containing food was compared as was the climbing of animals on the day of eclosion. Two trials were performed. In the first, the ability to climb in large glass vials was monitored over 10 seconds. […] The second trial was similar to the first except that animals were tested in tall thin plastic tubes for climbing over 30 seconds. […] The data from the two independent climbing trials are plotted as individual data points in FIG. 6A and 6B. A higher statistical power (e.g., 0.8) given the observed standard deviations and differences of the means may be achieved by doubling the size of the experiment for the highest concentration and increasing about 10 fold for the lower concentrations.

Row | SMILES | rescue of photoreceptor neurons, historical positive control [1] | timing of emergence slowed ([2]; 1 mM) | decrease in eclosion ([2]; 1 mM in the food) | toxicity (tolerability) ([2]; 10 to 300 μM in the food, below 1 mM, dihydrochloride) | toxicity in Drosophila, overall statement ([2]; FIG. 1 / experimental summary) | rescue of photoreceptor neurons ([3]; 10 μM) | rescue of photoreceptor neurons compared to untreated controls ([3]; 100 μM, dihydrochloride) | rescue of photoreceptor neurons compared to untreated controls ([3]; 100 μM, listed as Dimebon, dihydrochloride) | suppression of photoreceptor neuron degeneration, retest ([3]; 100 μM, dihydrochloride) | rescue of photoreceptor neurons ([3]; 1 mM) | suppression of photoreceptor neuron degeneration, lower concentrations ([3]; 1, 10 and 30 μM, FIG. 4, dihydrochloride) | suppression of photoreceptor neuron degeneration, retest ([3]; higher doses (300 or 1,000 μM)) | protection of photoreceptors, overall statement ([3]; dihydrochloride) | protection of photoreceptors, overall statement ([3]; listed as Dimebon, dihydrochloride) | previously measured optimum concentration ([3]; photoreceptor rescue) | numbers surviving to be tested at day 7 ([4]; 10 μM) | numbers surviving to be tested at day 7 ([4]; 100 μM) | climbing behavior over 10 seconds ([4]; 1 mM (1000 μM), 7 day old animals, glass vials, FIG. 5, dihydrochloride) | numbers surviving to be tested at day 7 ([4]; 1 mM) | climbing behavior over 30 seconds ([4]; 10, 100 or 1,000 μM, tall thin plastic tubes, second trial, dihydrochloride)
1 | C[C@@H](N)[C@H]1CC[C@H](C(=O)Nc2ccncc2)CC1 [Y-27632] | strongly rescuing |  |  |  |  |  |  |  |  |  |  |  |  |  |  |  |  |  |  | 
2 | Cc1ccc2c(c1)c1c(n2CCc2ccc(C)nc2)CCN(C)C1.Cl.Cl [dimebon, 2,8-dimethyl-5-(2-(6-methyl-3-pyridyl)-ethyl)-2,3,4,5-tetrahydro-1H-pyrido[4,3-b]indole dihydrochloride] |  | approximately 1 day | ~20% | generally well tolerated; also recorded: no significant toxicity | minimal toxicity | lesser but still apparent rescue of neurons | statistically significant (p=0.0014) rescue of neurons | significant suppression of neuronal degeneration | significant improvement; also recorded: significant rescue | still appeared to cause neuronal rescue, but to a lesser extent | no statistically significant improvement; also recorded: modest tendency for improved photoreceptor numbers | no statistically demonstrable improvement | effective in inhibiting mutant huntingtin-induced neurodegeneration | protect photoreceptors in a dose-dependant manner | 100 µM | 8 | 12 | significant difference between the control and 1000 μM; also recorded: statistically significant improvement in climbing; also recorded: statistical difference between D7ND and 1 mM | 8 | No statistically demonstrable difference between treated and control groups
